Consider twelve molecules from US20080070898A1, “Piperidine Derivative or Pharmaceutically Acceptable Salt Thereof” (priority 2004, published 2008).

For assay [1], the system named is sodium channel. The experiment in a line: [14C] guanidine uptake test (sodium channel inhibition test), veratridine-induced uptake into rat cerebral cortex primary neurons. The format is cell-based. Particulars: 100 μM veratridine, 25° C., 15 minutes, specific uptake defined by 1 mM mexiletine. The procedure:
(Sodium Channel Inhibition Test)
The [^14C] guanidine uptake test was conducted by modifying the method of Bonisch et al. (British Journal of Pharmacology 108, 436-442, 1993). The [^14C] guanidine was used as a sodium tracer, and the inhibitory activity on uptake of [^14C] guanidine induced by veratridine as a sodium channel activator into rat cerebral cortex primary neurons was measured.
a. Preparation of Rat Cerebral Cortex Primary Neuron Culture System.
A pregnant rat (Wistar, female, pregnancy=19 days old) was anesthetized with diethyl ether and killed by bleeding with the cutting of the carotid artery. Fetuses were excised from the pregnant rat and sterilized with ethanol for disinfection. Then, from the fetuses was dissociated the cerebral cortex. The cerebral cortex was digested with papain and dispersed in a culture medium. Then, the dissociated neurons were placed in a 96-well white plate coated with a poly-L-lysine, at a density of […], and cultured for 2 days in a CO2 incubator (37° C., 5% CO2)
b. Evaluation of Test Compounds
Each well was washed once with an assay buffer (135 mM choline Cl, 5 mM KCl, 1 mM MgSO4, 5.5 mM glucose, 1 mg/mL BSA, 10 mM Hepes-Tris, pH 7.4). The assay buffer was added to each well and incubated at 25° C. for 10 minutes. Then, the assay buffer was replaced by a reaction solution (test compound, [^14C] guanidine and 100 μM veratridine) and incubated at 25° C. for 15 minutes. The reaction was terminated by three times washing with a cold-washing buffer (135 mM NaCl, 5 mM KCl, 1 mM MgSO4, 10 mM Hepes-Tris, pH 7.4). To each well was added 17 μL of 0.1 N NaOH; stirring was made; then, 100 μL of a scintillator was added; and the radioactivity of each well was measured using a liquid scintillator counter. In each test, the uptake amount of [^14C] guanidine inhibited by 1 mM of mexiletine was taken as the portion of the specific uptake via sodium channel. The activity of test compound on sodium channel is expressed by 50% inhibitory concentration (IC50) for the specific uptake.

The test system of assay [2] is streptozotocin (STZ)-induced diabetic mice. Nature of the assay: Analgesic action on diabetic neuropathy in streptozotocin-induced diabetic mice (tail pinch test). Particulars: orally 30 mg/kg, 45 minutes prior to measurement, Day 15 after STZ injection, ICR mice. The format is in vivo. The procedure:
(Analgesic Action on Diabetic Neuropathy in Streptozotocin-Induced Diabetic Mice)
Representative compounds of Compound (I) of the present invention were assessed for the analgesic action on diabetic neuropathy in streptozotocin (STZ)-induced diabetic mice to confirm the effect on neuropathic pain. The assessment was performed by the method of Kamei et al. (Pharmacology Biochemistry & Behavior 39, 541-544, 1991) with some modifications.
Male ICR mice of 4 weeks old were intraperitoneally injected with 200 mg/kg weight of STZ to prepare mice with diabetic neuropathy. The analgesic action was assessed by the tail pinch test. […] On Day 14 following the STZ injection, a pretest was carried out to determine the response latency before the administration of a test compound. Only the animals showing not longer than 3 seconds of the response latency in the pretest were used for the test compound assessment on the following day (Day 15 after STZ injection). In the test compound assessment, the response latency after the administration of a test compound was measured. The test compound was orally administered at a dose of 30 mg/kg, 45 minutes prior to the response latency measurement. The analgesic action of a test compound is expressed as prolongation of latency (in seconds) calculated by the formula: (response latency after administration of a test compound)−(response latency before administration of a test compound).

Assay [3] deals with L5/L6 spinal nerve ligation rats. Nature of the assay: animal or person. Particulars: Rattus norvegicus, po, read-out: ED50 (anti-allodynia action potency).
Protocol: (Anti-Allodynia Effect in Rats with L5/L6 Spinal Nerve Ligation)
The assessment was performed by the method of Kim and Chung (Pain 50, 355-363, 1992) with some modifications. Under pentobarbital anesthesia, male SD rats of 5 or 6 weeks old were given surgery to ligate both the left L5 and L6 lumbar spinal nerves tightly with silk threads. For the assessment of analgesic action, the von Frey hair test was adopted. That is, the animal's hindpaw was picked with hair and the lowest strength of hair for limb withdrawal response was designated as a response threshold (log gram) to mechanical stimulation. […] On the day before the assessment of a test compound, the response threshold before administration of a test compound was measured. The animals were divided into 4 to 5 groups so that differences in the mean values of response thresholds before administration among the groups and variation within groups become small. In the assessment of a test compound, the response threshold after administration of the test compound was measured. The test compound was orally given 30 minutes before measurement of the response threshold. The anti-allodynia action potency of a test compound is expressed as ED50. In the calculation of the ED50, the thresholds of ipsilateral and contralateral paws in the solvent group were designated as 0% and 100%, respectively.

Counter-ions that a name gives are not always drawn.

In assay [1], `O=C(CN1CCOCC1)N1CCC(/C=C/c2ccccc2Cl)CC1` [Example 1, 4-(2-{4-[(E)-2-(2-chlorophenyl)vinyl]piperidin-1-yl}-2-oxoethyl)morpholine oxalate] gave a half-inhibitory concentration (IC50) of 27 µM. On to `Cc1ccccc1/C=C/C1CCN(C(=O)CN2CCOCC2)CC1` [Example 3, 4-(2-{4-[(E)-2-(2-methylphenyl)vinyl]piperidin-1-yl}-2-oxoethyl)morpholine], for which the “Increase in latent time (prolongation of latency, tail pinch)” value (“Increase in latent time” for short) in assay [2] is 2.3 s. For `CC(C)Oc1ccccc1/C=C/C1CCN(C(=O)CN2CCOCC2)CC1` [Example 10], in assay [1], half-maximal inhibition (IC50) was put at 16 µM.

On to `CC(C)c1ccc(/C=C/C2CCN(C(=O)CN3CCOCC3)CC2)cc1` [Example 26, 4-(2-{4-[(E)-2-(4-isopropylphenyl)vinyl]piperidin-1-yl}-2-oxoethyl)morpholine], for which, in assay [2], the “Increase in latent time” value came to 2.3 s. This molecule yielded a concentration for half-maximal inhibition (IC50) in assay [1] of 25 µM. Take `O=C(CN1CCOCC1)N1CCC(/C=C/c2ccc(Cl)cc2)CC1` [Example 40, 4-(2-{4-[(E)-2-(4-chlorophenyl)vinyl]piperidin-1-yl}-2-oxoethyl)morpholine]: the “Increase in latent time” value in assay [2] was found to be 3.4 s. The same molecule had a concentration for half-maximal inhibition (IC50) in assay [1] of 23 µM. Take `O=C(CN1CCOCC1)N1CCC(/C=C\c2ccc(Cl)cc2)CC1` [Example 52]: it took 24 µM to reach half-maximal inhibition in assay [1] (IC50). `O=C(CN1CCCOCC1)N1CCC(/C=C/c2ccc(Cl)cc2)CC1` [Example 65] displayed a 50% inhibitory concentration (IC50) in assay [1] of 12 µM. Take `O=C(CN1CCNCC1)N1CCC(/C=C/c2cccc(Cl)c2)CC1` [Example 68, 1-(2-{4-[(E)-2-(3-chlorophenyl)vinyl]piperidin-1-yl}-2-oxoethyl)piperazine di-hydrochloride]: the midpoint of inhibition in assay [1], the IC50, lay at 25 µM.

In the case of `O=C(C1CCCN1)N1CCC(/C=C/c2ccc(Cl)cc2)CC1` (centres unmarked) [Example 74], the half-inhibitory concentration (IC50) in assay [1] stood at 13 µM. In the case of `O=C(CNC1CCCCC1)N1CCC(/C=C/c2ccc(Cl)cc2)CC1` [Example 76, N-2-{4-[(E)-2-(4-chlorophenyl)vinyl]piperidin-1-yl}-2-oxoethyl)cyclohexaneamine oxalate], in assay [2], the “Increase in latent time” value was 3.2 s. Moreover, in assay [1], the half-maximal inhibitory concentration (IC50) was 3.4 µM. Taken in the same sequence, the figures for `CN(CC(=O)N1CCC(/C=C/c2ccc(Cl)cc2)CC1)C1CCCCC1` [Example 78, N-2-{4-[(E)-2-(4-chlorophenyl)vinyl]piperidin-1-yl}-2-oxoethyl)-N-methylcyclohexaneamine oxalate] were 2.4 s and 3.1 µM.

In the case of `Cc1cccc(C)c1OCC(C)N` (centres unmarked) [mexiletine, reference compound], in assay [3], the ED50 is roughly 70 mg/kg. The same molecule had an IC50 in assay [1] of roughly 70 µM.

In general, IC50 refers to the concentration at which inhibition is half-maximal. For orientation: ED50 means the midpoint of the dose-response relation.
